One assay has as its target KRAS G12D (Homo sapiens, UniProt P01116, G12D). The experiment in a line: SOS-catalyzed nucleotide exchange assay, KRAS G12D (Procedure A). The conditions noted are these: guanine nucleotide exchange (GNE). It is filed as biochemical. An excerpt: (§1) Procedure for SOS-Catalyzed Nucleotide Exchange Assay for KRAS-WT, G12C/D/V, G13D, HRAS, and NRAS (Procedure A)
(§2) Recombinant KRAS-G12C protein used in this assay has an additional triple mutation (C51S/C80L/C118S). Whereas KRAS-WT, G12D/V, G13D, HRAS and NRAS are in context of their WT protein sequence background. Specifically, the SOS-catalyzed nucleotide exchange assay utilizes a preformed TR-FRET complex containing a specific biotinylated RAS protein (KRAS-WT, G12C/V/D, G13D, HRAS, NRAS; described above) with Bodipy-GDP, and Terbium-streptavidin. Compounds are preincubated with this complex for 60 minutes. Subsequently, recombinant human SOS protein and unlabeled GTP are added to initiate the exchange reaction. Small molecule inhibitors stabilize the Bodipy-GDP complex whereas the untreated protein rapidly exchanges Bodipy-GDP for unlabeled GTP resulting in reduced TR-FRET signal.
(§3) To assemble the preformed TR-FRET complexes, each biotinylated RAS protein is diluted to 2 μM in an EDTA Buffer (20 mM HEPES pH 7.5, 50 mM sodium chloride, 10 mM EDTA, and 0.01% Tween) and incubated at room temperature for one hour. This mixture is then further diluted to 90 nM in an Assay Buffer (20 mM HEPES pH 7.5, 150 mM sodium chloride, 10 mM magnesium chloride, and 0.005% Tween) containing 15 nM of Terbium-Streptavidin (Invitrogen, catalog #PV3577) and 900 nM of Bodipy-GDP (Invitrogen, catalog #G22360) and incubated at room temperature for six hours. It should be noted that this preformed TR-FRET complex for each of the RAS protein were made ahead of time, aliquoted and stored at −80° C. until the day of the experiment.
(§4) Each test compound (10 mM stock in DMSO) is diluted in DMSO to make a final-10-point, 3-fold dilution and is acoustically dispensed into a 384-well assay plate (Corning, catalog #3820) using an Echo 550 (Labcyte). Each well of the assay plate receives 3 μL of a specific 3×RAS preformed TR-FRET complex and 3 μL of Assay Buffer and is incubated at room temperature for 60 minutes (preincubation time). Each well then receives 3 μL of 3× recombinant human SOS protein and GTP (Sigma, G8877) in Assay Buffer and is incubated at room temperature for 30 minutes (G13D), 60 minutes (KRAS WT/G12C/D, H/NRAS) or 90 minutes for G12V. The final reaction in each well of 9 μL consists of 3 mM GTP, specific Ras and SOS proteins in the following concentrations: KRAS-G12C/SOS=3 nM/40 nM, KRAS-WT and G12D/SOS=1 nM/40 nM, KRAS-G12V/SOS=1.25 nM/160 nM, KRAS-G13D/SOS=1.25 nM/0 nM, HRAS and NRAS=1.25 nM/40 nM.
(§5) The time-resolved fluorescence resonance energy transfer (TR-FRET) signal is measured on an Envision (PerkinElmer) plate reader: Excitation filter=340 nm; emission1=495 nm; emission2=520 nm; dichroic mirror=D400/D505; delay time=[…]. The signal of each well is determined as the ratio of the emission at 520 nm to that at 495 nm. Percent effect of each well is determined after normalization to control wells containing DMSO (no effect) or a saturating concentration of inhibitor (max effect). The apparent effect as a function of compound concentration is fit to a four-parameter logistic equation.
(§6) For Example No. 14, nucleotide exchange assays for KRAS G12D, WT, G12C, and G12V were performed according to Procedure B. All the other compounds were tested according to Procedure A.

A further assay addresses KRAS WT (Homo sapiens, UniProt P01116). The experiment in a line: SOS-catalyzed nucleotide exchange assay, KRAS WT (Procedure A). It is filed as biochemical. The conditions noted are these: GNE.
From the text: as §1, §2, §3, §4, §5, §6

The target in a further assay is KRAS G12V (Homo sapiens, UniProt P01116, G12V). The experiment in a line: SOS-catalyzed nucleotide exchange assay, KRAS G12V (Procedure A). It is filed as biochemical. The conditions noted are these: GNE.
From the text: as §1, §2, §3, §4, §5, §6

The target in the next assay is T1, AsPC-1 cells (Homo sapiens, UniProt P01116, G12D).
T1 construct: p-ERK/total ERK AlphaSureFire read-out
The experiment in a line: Cellular phospho-ERK assay, AsPC-1 cells (KRAS G12D). It is filed as cell-based. As to conditions: 2 hours, read-out: AsPC1 pERK IC50. The method, then:
Procedure for Cellular Phospho-ERK Assay in KRAS Wild Type and Mutant (G12D, G12V) Cell Lines
PANC08.13 cells (ATCC® CRL-2551™), containing homozygous KRAS-G12D activating mutation, were cultured in growth medium made of RPMI1640-GlutaMAX™-I (ThermoFisher Scientific 61870) containing 15% heat inactivated fetal bovine serum (ThermoFisher Scientific 10091148)). AsPC-1 cells (ATCC® CRL-1682™), containing homozygous KRAS-G12D activating mutation, were cultured in T150 flask in growth medium (RPMI medium 1640-GlutaMAX™-I (ThermoFisher Scientific 61870) containing 10% fetal bovine serum (ThermoFisher Scientific 10091148)).
Cells for the assay were harvested in growth medium after TrypLE (ThermoFisher scientific 12604021) digestion and were seeded in a 384-well collagen coated cell culture plate (Corning 356702) at a density of 10,000-15,000 cells/20 μL/well, and incubated at 37° C., 5% CO2 overnight. The compound (with 10 mM stock concentration) dose-response titrations were prepared [30 μM final ERK detection assay concentration and 1:3 dilutions, 10-point dose response] and appropriate amounts (270 nL) of test compounds were dispensed in a 384-well intermediate plate using an Echo 550 liquid handler. 30 μL/well of RPMI medium 1640-GlutaMAX™-I was added to the intermediate plate and the contents of the intermediate plate (10 μL/well) were then transferred to the 384-well collagen coated cell culture plate, which was incubated at 37° C., 5% CO2 for 2 hours. After removal of medium from the collagen coated cell culture plate, cells were lysed in lysis buffer from Alpha SureFire® Ultra™ Multiplex p-ERK and total ERK assay kit (PerkinElmer MPSU-PTERK) containing Halt™ Protease and Phosphatase inhibitor cocktail (ThermoFisher Scientific 78446) at room temperature with constant shaking at 300 rpm for 30 minutes. The cell lysates were then transferred to an OptiPlate-384 plate (PerkinElmer 6005620), and the phosphorylation of ERK (p-ERK) and total ERK levels were detected by Alpha SureFire® Ultra™ Multiplex p-EEK kit and total ERK assay kit (PerkinElmer MPSU-PTERK) following the manufacturer's protocol. Assay plates were read on a EnVision Multimode Plate Reader (PerkinElmer), and the ratio of p-ERK vs. total ERK in each well was used as the final readout. Dose response curves were analyzed using a 4-parameter logistic model to calculate IC50 values using Spotfire software.

Broadly, the IC50 is the midpoint of a concentration-inhibition curve.

T1 sequence (P01116 1-188 isoform P01116-2 G12D): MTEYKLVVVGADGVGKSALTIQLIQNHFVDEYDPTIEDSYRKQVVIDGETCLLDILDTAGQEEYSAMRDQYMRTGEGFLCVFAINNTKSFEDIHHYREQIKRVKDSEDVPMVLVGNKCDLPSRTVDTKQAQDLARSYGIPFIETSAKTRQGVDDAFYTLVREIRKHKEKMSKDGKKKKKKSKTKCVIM
Sequence of KRAS WT (P01116 with tags, fused parts or gaps isoform P01116-2): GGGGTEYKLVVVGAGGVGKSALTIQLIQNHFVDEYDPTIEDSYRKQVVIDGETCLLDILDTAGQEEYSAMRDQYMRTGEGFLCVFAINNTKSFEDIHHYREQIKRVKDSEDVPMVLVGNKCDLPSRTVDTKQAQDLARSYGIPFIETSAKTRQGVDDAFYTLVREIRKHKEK
Sequence of KRAS G12D (P01116 with tags, fused parts or gaps isoform P01116-2 G12D): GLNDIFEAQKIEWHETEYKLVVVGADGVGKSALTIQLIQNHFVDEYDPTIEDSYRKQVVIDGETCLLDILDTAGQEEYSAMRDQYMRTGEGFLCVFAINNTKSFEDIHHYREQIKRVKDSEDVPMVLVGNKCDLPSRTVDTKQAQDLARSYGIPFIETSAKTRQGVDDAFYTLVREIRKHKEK
Sequence of KRAS G12V (P01116 with tags, fused parts or gaps isoform P01116-2 G12V): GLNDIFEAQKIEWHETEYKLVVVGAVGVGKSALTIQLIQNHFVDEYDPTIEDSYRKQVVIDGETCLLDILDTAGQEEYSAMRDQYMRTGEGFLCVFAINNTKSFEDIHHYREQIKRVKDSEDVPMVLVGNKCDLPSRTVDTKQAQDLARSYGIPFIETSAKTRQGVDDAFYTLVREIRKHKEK

Turning to `Fc1ccc2cc3[nH]ncc3c(-c3nccc4c3C3(CC3)c3nc(OC[C@@]56CCCN5C[C@H](F)C6)nc(N5C[C@H]6CC[C@@H](C5)N6)c3-4)c2c1Cl` (single isomer, unassigned) [Ex-117], the IC50 on KRAS G12D was determined as 0.0024 µM; against KRAS WT, 0.369 µM; against KRAS G12V, 0.859 µM; at AsPC-1 cells, 0.189 µM.
For `COC1(COc2nc(N3C[C@H]4CC[C@@H](C3)N4)c3c(n2)sc2c(-c4c(C(F)(F)F)c(C)cc5[nH]ncc45)nccc23)CC1` [Ex-26, 4-((1R,5S)-3,8-diazabicyclo[3.2.1]octan-3-yl)-2-((1-methoxycyclopropyl)methoxy)-8-(6-methyl-5-(trifluoromethyl)-1H-indazol-4-yl)pyrido[4′,3′:4,5]thieno[2,3-d]pyrimidine], in that order: 3.2 µM, greater than 11.1 µM, greater than 11.1 µM and greater than 30 µM.
For the molecule `Cc1cc2[nH]ncc2c(-c2nccc3c2sc2nc(OCC4CS(=O)(=O)C4)nc(N4C[C@H]5CC[C@@H](C4)N5)c23)c1C(F)(F)F` [Ex-27, 3-(((4-((1R,5S)-3,8-diazabicyclo[3.2.1]octan-3-yl)-8-(6-methy1-5-(trifluoromethyl)-1H-indazol-4-yl)pyrido[4′,3′:4,5]thieno[2,3-d]pyrimidin-2-yl)oxy)methyl)thietane 1,1-dioxide], the IC50 is 3.59 µM on KRAS G12D, greater than 11.1 µM at KRAS WT, greater than 11.1 µM against KRAS G12V and 5.73 µM at AsPC-1 cells.
On to `Cc1cc2[nH]ncc2c(-c2nccc3c2sc2nc(OCC45COC(CF)(C4)C5)nc(N4C[C@H]5CC[C@@H](C4)N5)c23)c1C(F)(F)F` [Ex-28, 4-((1R,5S)-3,8-diazabicyclo[3.2.1]octan-3-yl)-2-((1-(fluoromethyl)-2-oxabicyclo[2.1.1]hexan-4-yl)methoxy)-8-(6-methy1-5-(trifluoromethyl)-1H-indazol-4-yl)pyrido[4′,3′:4,5]thieno[2,3-d]pyrimidine], for which the IC50 against KRAS G12D is 3.34 µM; against KRAS WT it was greater than 11.1 µM; against KRAS G12V it was greater than 11.1 µM; at AsPC-1 cells, greater than 30 µM.
On to `Cc1cc2[nH]ncc2c(-c2nccc3c2sc2nc(OC[C@H]4C[C@H](S(C)(=O)=O)C4)nc(N4C[C@H]5CC[C@@H](C4)N5)c23)c1C(F)(F)F` [Ex-29, 4-((1R,5S)-3,8-diazabicyclo[3.2.1]octan-3-yl)-8-(6-methyl-5-(trifluoromethyl)-1H-indazol-4-yl)-2-(((1r,3R)-3-(methylsulfonyl)cyclobutyl)meth-oxy)pyrido[4′,3′:4,5] thieno[2,3-d]pyrimidine], for which the IC50 is 2.48 µM on KRAS G12D, greater than 11.1 µM against KRAS WT, greater than 11.1 µM against KRAS G12V and greater than 30 µM on AsPC-1 cells.
As for `Cc1cc2[nH]ncc2c(-c2nccc3c2sc2nc(OCC4CCS(=O)(=O)C4)nc(N4C[C@H]5CC[C@@H](C4)N5)c23)c1C(F)(F)F` (stereo partly drawn) [Ex-30, 3-(((4-((1R,5S)-3,8-diazabicyclo[3.2.1]octan-3-yl)-8-(6-methyl-5-(trifluoromethyl)-1H-indazol-4-yl)pyrido[4′,3′:4,5]thieno[2,3-d]pyrimidin-2-yl)oxy)methyl)tetrahydrothio-phene 1,1-dioxide], the IC50 against KRAS G12D is 2.6 µM; at KRAS WT, greater than 11.1 µM; against KRAS G12V, greater than 11.1 µM; on AsPC-1 cells it was greater than 30 µM.
On to `Cc1cc2[nH]ncc2c(-c2nccc3c2sc2nc(OCC4CCS4(=O)=O)nc(N4C[C@H]5CC[C@@H](C4)N5)c23)c1C(F)(F)F` (stereo partly drawn) [Ex-31, 2-(((4-((1R,5S)-3,8-diazabicyclo[3.2.1]octan-3-yl)-8-(6-methyl-5-(trifluoromethyl)-1H-indazol-4-yl)pyrido[4′,3′:4,5]thieno[2,3-d]pyrimidin-2-yl)oxy)methyl)thietane 1,1-dioxide], for which the IC50 against KRAS G12D was 7.79 µM; against KRAS WT, greater than 11.1 µM; against KRAS G12V it was greater than 11.1 µM; at AsPC-1 cells, greater than 30 µM.
On to `Cc1cc2[nH]ncc2c(-c2nccc3c2sc2nc(OCCN4CCOC4=O)nc(N4C[C@H]5CC[C@@H](C4)N5)c23)c1C(F)(F)F` [Ex-40, 3-(2-((4-((1R,5S)-3,8-diazabicyclo[3.2.1]octan-3-yl)-8-(6-methyl-5-(trifluoromethyl)-1H-indazol-4-yl)pyrido[4′,3′:4,5]thieno[2,3-d]pyrimidin-2-yl)oxy)ethyl)oxazolidin-2-one], for which the IC50 against KRAS G12D was 5.88 µM; against KRAS WT, greater than 11.1 µM; against KRAS G12V, greater than 11.1 µM; at AsPC-1 cells it was greater than 30 µM.
On to `C#Cc1c(F)ccc2cc3[nH]ncc3c(-c3nccc4c3sc3nc(OC[C@@]56CCCN5C[C@H](F)C6)nc(N5C[C@H]6CC[C@@H](C5)N6)c34)c12` [Ex-56], for which the IC50 at KRAS G12D was determined as 0.00445 µM; at KRAS WT it was 0.225 µM; on KRAS G12V, 0.283 µM; at AsPC-1 cells, 0.0318 µM.
The corresponding values for `Fc1ccc2cc3[nH]ncc3c(-c3nccc4c3sc3nc(OC[C@@]56CCCN5C[C@H](F)C6)nc(N5C[C@H]6CC[C@@H](C5)N6)c34)c2c1` [Ex-57, 4-((1R,5S)-3,8-diazabicyclo[3.2.1]octan-3-yl)-8-(6-fluoro-1H-benzo[f]indazol-4-yl)-2-(((2R,7aS)-2-fluorotetrahydro-1H-pyrrolizin-7a(5H)-yl)methoxy)pyri-do[4′,3′:4,5] thieno[2,3-d]pyrimidine] are 0.0236 µM, 2.89 µM, 2.09 µM and 0.299 µM.

For the origin of these results see US20260347372A1, “SMALL MOLECULE INHIBITORS OF KRAS G12D MUTANT” (MERCK SHARP & DOHME LLC, priority 2023, published 2026).
